According to PubChem BioAssay AID488958 (The Scripps Research Institute Molecular Screening Center, 2010):
pIC50: −log10 of the molar value. Active and inactive are the calls of the source. No rule for the calls is given here.

Target: 3C-like protease (Infectious bronchitis virus, as filed; assay for SARS-CoV 3CLpro)
Assay: potency of SARS-CoV 3CLpro inhibitors, late-stage follow-up, biochemical, fluorescence, dose response (AID 488958)
Settings: recombinant 3CLpro, fluorogenic peptide cleavage

SMILES	pIC50	IC50
CC(C)(C)NC(=O)C(c1cccnc1)N(C(=O)c1ccc(Cl)o1)c1ccc(C(C)(C)C)cc1 (stereo unspecified)	5.28	–
CC(C)(C)NC(=O)C(c1cncnc1)N(C(=O)c1cnc[nH]1)c1ccc(C(C)(C)C)cc1 (stereo unspecified)	–	inactive
CCC(C)c1ccc(N(C(=O)c2ccco2)[C@H](C(=O)NC(C)(C)C)c2cccnc2)cc1 (stereo partly specified)	5.64	–
CC(=O)Nc1ccc(N(C(=O)Cn2nnc3ccccc32)C(C(=O)NC(C)(C)C)c2cccc(F)c2)cc1 (stereo unspecified)	5.20	–
CC(=O)Nc1ccc(N(C(=O)Cn2nnc3ccccc32)C(C(=O)NCc2ccccc2)c2cccc(F)c2)cc1 (stereo unspecified)	5.54	–
CC(C)(C)NC(=O)C(c1cccnc1)N(C(=O)c1ncco1)c1ccc(C(C)(C)C)cc1 (stereo unspecified)	–	inactive
